Columns and labels:
[1] = test system: RAW264.7 macrophages; experiment: Quantitative real-time PCR of inflammatory mediators and cytokines; type: cell-based, mouse; details: LPS-induced
Protocol: RNA was isolated from cells using TRIzol reagent (Invitrogen, Carlsbad, CA, USA) as previously described.^32 The concentration of the isolated RNA was measured using an Epoch microplate spectrophotometer (BioTek, Winooski, VT, USA). One microgram of RNA was reverse-transcribed to cDNA with random primers and an MMLV RT kit (Epicenter Biotechnologies, Madison, WI, USA). The mixture (2 μl) was added to PCR reagents to measure the target mRNA level with specific primers (Table 1). All real-time PCRs were performed in a volume of 20 μl containing 10 μl of Real-time PCR SYBR Green master mix (Toyobo, Osaka, Japan) using a PikoReal 96 Real-Time PCR System (Thermo Fisher Scientific Inc.), according to our previously described method.^33 The expression of β-actin was used as an internal control for RNA quantification.

[2] = test system: STAT3, smad3, TGF1β-induced alpha-SMA and fibronectin; experiment: Immunoblot comparison of FJU-C28 with Pirfenidone; type: cell-based; details: versus Pirfenidone; FIGS. 10A-10C
Protocol: Further, a comparison between FJU-C28 and FDA-approved drug Pirfenidone for effects on STAT3 inhibition, smad3 activation, TGF1β-induced alpha-SMA and fibronectin expression are conducted. The results are shown in the quantitative immunoblot data in FIGS. 10A, 10B and 10C.

[3] = concentration less than 10 μM, FIG. 2

C=CCC1CC(Sc2ccccc2)=CC(=O)N1C(=O)C=C (stereo not shown) [FJU-C28]
mRNA level of COX2 ([1]; FIG. 2): downregulated in a concentration-dependent manner | mRNA level of iNOS ([1]; FIG. 2): downregulated in a concentration-dependent manner | mRNA level of IL-1β [1, 3]: concentration-dependently decreased | mRNA level of IL-6 [1, 3]: concentration-dependently decreased | gene expression of IL-6 ([1]; dose higher than 5 μM): noticeably inhibited | gene expression of iNOS ([1]; dose higher than 5 μM): noticeably inhibited | inhibition of STAT3 [2]: more significant than that of Pirfenidone | inhibition of TGF1β-induced alpha-SMA expression [2]: more significant than that of Pirfenidone | inhibition of TGF1β-induced fibronectin expression [2]: more significant than that of Pirfenidone | inhibition of smad3 [2]: more significant than that of Pirfenidone
